“And” between values parts separate entries of the source, which are not always exact repeats. Equal entries are not always repeated.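 Dose response: 5 concentrations. Exposure: 48 h. Format: 96-well plates. Endpoint: linear interpolation; highest concentration if not reached. At the GI50, growth is halved. TGI: concentration producing complete growth inhibition.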
Tests used:
Assay in all cases: NCI tumour cell line growth inhibition, 48 h
[1] = system: DMS 114 small cell lung
[2] = system: P388 leukemia
[3] = system: 786-0 renal
[4] = system: U251 CNS
[5] = system: RPMI-8226 leukemia
[6] = system: MALME-3M melanoma
[7] = system: SNB-75 CNS
[8] = system: DMS 273 small cell lung
[9] = system: NCI-H23 lung
[10] = system: K-562 leukemia
[11] = system: SNB-19 CNS
[12] = system: MDA-N
[13] = system: HS 578T breast
[14] = system: SK-MEL-28 melanoma
[15] = system: M14 melanoma
[16] = system: NCI-H522 lung

Compound: O=CC(NC(=O)N(CCCl)N=O)C(O)C(O)C(O)CO (configuration not stated)
- GI50 [1]: 218 µM and > 1250 µM
- TGI [1]: 625 µM and > 1250 µM
- TGI [2]: > 1.25 mM
- TGI [3]: 593 µM
- GI50 [4]: 69.2 µM and 105 µM
- TGI [4]: 625 µM and > 1250 µM
- GI50 [5]: 497 µM and > 1250 µM
- TGI [5]: 625 µM and > 1250 µM
- GI50 [6]: 131 µM
- TGI [6]: 543 µM and 767 µM
- GI50 [7]: 146 µM
- TGI [7]: 625 µM and 1050 µM
- GI50 [8]: 218 µM and > 1250 µM
- TGI [8]: 625 µM and > 1250 µM and > 1210 µM
- GI50 [9]: 233 µM and > 1250 µM
- TGI [9]: 625 µM and > 1250 µM
- GI50 [10]: > 0.198 mM and 1.04 mM
- TGI [10]: > 1.25 mM
- GI50 [11]: 62.6 µM and 384 µM
- TGI [11]: 625 µM and > 1250 µM
- TGI [12]: > 1.22 mM
- TGI [13]: > 1.25 mM
- GI50 [14]: > 1.25 mM
- TGI [14]: > 1.25 mM
- TGI [15]: > 1.25 mM
- GI50 [16]: > 625 µM
- TGI [16]: > 1.25 mM
